From US20160317503A1, “ZOLMITRIPTAN POWDERS FOR PULMONARY DELIVERY” (Civitas Therapeutics, Inc., priority 2015, published 2016)
Blank lines part the entries; values can stand above or below the compound they belong to.

What was measured:
[1] = DSC / modulated DSC thermal events (Tg, Low T1, Low T2, recrystallization, melt); assay type: physicochemical
Method: For comparative purposes, a 100% spray-dried zolmitriptan powder was prepared and analyzed via XRPD and DSC to allow for a comparison to the formulations from Example 2 that were placed on stability and to facilitate an interpretation of the resultant thermal data. Initially, a lot of amorphous 100% zolmitriptan was produced via a Buchi 290 Spray-Drying System (spray drying parameters: solids concentration=2 g/L, inlet temperature=90° C., outlet temperature=45° C., drying gas flowrate=20 kg/hr, atomization gas flowrate=10 g/min, aqueous flowrate=4 ml/Min, organic phase flowrate=6 ml/min, spray dryer pressure=−50 mbar) and analyzed via modulated DSC (TA Instruments DSC Q2000 Tzero System, MDSC Parameters: hermetically sealed double lid pan configuration, equilibrate at 0° C. for 5 minutes, ramp up to maximum of 160° C. at 2.0° C./min, modulate+/−1.00° C. every 60 seconds) to determine its glass transition temperature.

[2] = s.c.; cited from earlier work

- Tm (° C.) ([1]; 100% zolmitriptan study, t = 0): 136.0 °C
- ΔH ([1]; 100% zolmitriptan study, t = 0): 135.3 J/g
- Tm (° C.) ([1]; 100% zolmitriptan study, t = 0, listed as Zolmitriptan raw material): approximately 136 °C
Structure (SMILES): CN(C)CCc1c[nH]c2ccc(C[C@H]3COC(=O)N3)cc12 [Raw material, Zolmitriptan]

Structure (SMILES): CN(C)CCc1c[nH]c2ccc(C[C@H]3COC(=O)N3)cc12 [Zolmitriptan]
- reported half-lives [2]: ~2 h

- glass transition temperature (Tg) ([1]; modulated DSC, amorphous 100% zolmitriptan, Buchi 290): approximately 33 °C
Structure (SMILES): CN(C)CCc1c[nH]c2ccc(C[C@H]3COC(=O)N3)cc12 [pure amorphous zolmitriptan, Zolmitriptan]

Structure (SMILES): CNS(=O)(=O)Cc1ccc2[nH]cc(CCN(C)C)c2c1 [sumatriptan]
- reported half-lives [2]: ~2 h
